Target: T1, full length active recombinant SYK enzyme (Homo sapiens, UniProt P43405)
T1 construct: full length active recombinant SYK enzyme (Millipore, Calif.); purchased Millipore
Assay: Inhibition of Syk tyrosine phosphorylation activity (LANCE TR-FRET kinase assay)
Assay type: biochemical
Conditions: 1 nM active SYK enzyme, 550 nM SYK-substrate, 100 μM ATP, 1 hour at room temperature
Experimental: The in vitro and in vivo human Syk activities of the inventive compounds can be determined by various procedures known in the art, such as a test for their ability to inhibit the activity of human plasma Syk.
Inhibition of Syk Tyrosine Phosphorylation Activity
SYK tyrosine phosphorylation activity is measured using the LANCE™ Technology developed by Perkin Elmer Life and Analytical Sciences (Boston, Mass.). LANCE™ refers to homogeneous time resolved fluorometry applications using techniques such as time-resolved fluorescence resonance energy transfer assay (TR-FRET) (see generally for procedures in Perkin Elmer Application Note—How to Optimize a Tyrosine Kinase Assay Using Time Resolved Fluorescence-Based LANCE Detection, wwww.perkinelmer.com/lifesciences). The assay principle involves detection of a phosphorylated substrate using energy transfer from a phosphospecific europium-labeled antibody to streptavidin-allophycocyanin as an acceptor.
Molecules are reconstituted in 30% DMSO and serially diluted 1:3 with the final dilution containing DMSO in the absence of the candidate molecule. The final DMSO concentration in the assay is 3%. Kinase assays are performed as a two part reaction. […] The second reaction involves termination of the kinase reaction and the simultaneous addition of the detection reagents-europium-labeled anti-phosphotyrosine reagent (Eu-W1024-PY100, Perkin Elmer, Boston, Mass.) and Streptavidin-Allophycocyanin detection reagent (SA-APC, Prozyme, CA). The kinase reaction is performed in a black U-bottom 96-well microtitre plate. […] The reaction is allowed to proceed for 1 hour at room temperature. The quench buffer contains 100 mM Tris pH 7.5, 300 mM […], 20 mM EDTA, 0.02% Brij35, and 0.5% BSA. The detection reagents are added to the reaction mixture at the following dilutions-1:500 for Eu-W1024-PY100 and 1:250 for SA-APC. The kinase reaction is terminated by the addition of 50 μL quench buffer containing the detection reagents. The detection is allowed to proceed for 1 hr at room temperature. Detection of the phosphorlated substrate in the absence and presence of inhibitors is measured in the TR-FRET instrument, Analyst HT (Molecular Probes, Sunnyvale, Calif.) and the condition for measurements are set up using CriterionHost Release 2.0 (Molecular Probes, Sunnyvale, Calif.). […] IC50s were derived by non-linear regression analysis.

| IC50 [µM] | Compound |
| --- | --- |
| 0.01 to 0.1 | Cc1cc(Nc2nc(N[C@@H]3CCCC[C@@H]3N)nnc2C(N)=O)ccc1C(=O)N1CCC1 [Example 64, 3-(((1R,2S)-2-aminocyclohexyl)amino)-5-((4-(azetidine-1-carbonyl)-3-methylphenyl)amino)-1,2,4-triazine-6-carboxamide] |
| > 1 | CN(C)C(=O)c1ccc(Nc2nc(N[C@@H]3CCCC[C@@H]3N)nnc2C(N)=O)cn1 [Example 65, 3-(((1R,2S)-2-aminocyclohexyl)amino)-5-((6-(dimethylcarbamoyl)pyridin-3-yl)amino)-1,2,4-triazine-6-carboxamide] |
| 0.001 to 0.01 | NC(=O)c1nnc(N[C@@H]2CCCC[C@@H]2N)nc1Nc1ccccc1 [Example 69, 3-(((1R,2S)-2-aminocyclohexyl)amino)-5-(phenylamino)-1,2,4-triazine-6-carboxamide] |
| 0.01 to 0.1 | NC(=O)c1nnc(N[C@@H]2CCNC2)nc1Nc1cccc(-c2ncccn2)c1 [Example 70, (R)-5-((3-(pyrimidin-2-yl)phenyl)amino)-3-(pyrrolidin-3-ylamino)-1,2,4-triazine-6-carboxamide] |
| 0.1 to 1 | N#Cc1ccc(Nc2nc(N[C@@H]3CCOC[C@@H]3N)nnc2C(N)=O)cc1 [Example 76, 3-(((3R,4R)-3-aminotetrahydro-2H-pyran-4-yl)amino)-5-((4-cyanophenyl)amino)-1,2,4-triazine-6-carboxamide] |
| 0.1 to 1 | Cn1cc(Nc2nc(N[C@@H]3CCCC[C@@H]3N)nnc2C(N)=O)cn1 [Example 78, 3-(((1R,2S)-2-aminocyclohexyl)amino)-5-((1-methyl-1H-pyrazol-4-yl)amino)-1,2,4-triazine-6-carboxamide] |
| 0.1 to 1 | Cn1cc(Nc2nc(N[C@@H]3CCOC[C@@H]3N)nnc2C(N)=O)cn1 [Example 79, 3-(((3R,4R)-3-aminotetrahydro-2H-pyran-4-yl)amino)-5-((1-methyl-1H-pyrazol-4-yl)amino)-1,2,4-triazine-6-carboxamide] |
| 0.1 to 1 | CC[C@@H](Nc1nnc(C(N)=O)c(Nc2cccc(-n3nccn3)c2)n1)C(N)=O [Example 86, (R)-5-((3-(2H-1,2,3-triazol-2-yl)phenyl)amino)-3-((1-amino-1-oxobutan-2-yl)amino)-1,2,4-triazine-6-carboxamide] |
| 0.1 to 1 | Cn1ccc2c(Nc3nc(NCC4CCC(=O)N4)nnc3C(N)=O)cccc21 (stereo not drawn) [Example 89, 5-((1-methyl-1H-indol-4-yl)amino)-3-(((5-oxopyrrolidin-2-yl)methyl)amino)-1,2,4-triazine-6-carboxamide] |
| > 1 | NC(=O)c1nnc(N)nc1Nc1cccc(-c2ncccn2)c1 [Example 92, 3-amino-5-((3-(pyrimidin-2-yl)phenyl)amino)-1,2,4-triazine-6-carboxamide] |
| 0.1 to 1 | Cn1ccc2c(Nc3nc(N[C@@H](C(N)=O)C(C)(C)C)nnc3C(N)=O)cccc21 [Example 93, (R)-3-((1-amino-3,3-dimethyl-1-oxobutan-2-yl)amino)-5-((1-methyl-1H-indol-4-yl)amino)-1,2,4-triazine-6-carboxamide] |

The next lines start with the molecule.

| Compound | IC50 [µM] |
| --- | --- |
| NC(=O)c1nnc(N[C@@H]2CCCC[C@@H]2N)nc1Nc1ccc(C(=O)N2CCC2)nc1 [Example 66, 3-(((1R,2S)-2-aminocyclohexyl)amino)-5-((6-(azetidine-1-carbonyl)pyridin-3-yl)amino)-1,2,4-triazine-6-carboxamide] | 0.01 to 0.1 |
| NC(=O)c1nnc(N[C@@H]2CCCC[C@@H]2N)nc1Nc1ccc(F)nc1 [Example 67, 3-(((1R,2S)-2-aminocyclohexyl)amino)-5-((6-fluoropyridin-3-yl)amino)-1,2,4-triazine-6-carboxamide] | 0.1 to 1 |
| COc1cc(Nc2nc(N[C@@H]3CCCC[C@@H]3N)nnc2C(N)=O)ccn1 [Example 68, 3-(((1R,2S)-2-aminocyclohexyl)amino)-5-((2-methoxypyridin-4-yl)amino)-1,2,4-triazine-6-carboxamide] | 0.001 to 0.01 |
| NC(=O)c1nnc(N[C@@H]2CCOC[C@@H]2N)nc1Nc1cccc(-c2ncccn2)c1 [Example 71, 3-(((3R,4R)-3-aminotetrahydro-2H-pyran-4-yl)amino)-5-((3-(pyrimidin-2-yl)phenyl)amino)-1,2,4-triazine-6-carboxamide] | 0.01 to 0.1 |
| N#Cc1cccc(Nc2nc(N[C@@H]3CCCC[C@@H]3N)nnc2C(N)=O)c1 [Example 72, 3-(((1R,2S)-2-aminocyclohexyl)amino)-5-((3-cyanophenyl)amino)-1,2,4-triazine-6-carboxamide] | 0.001 to 0.01 |
| CC[C@@H](Nc1nnc(C(N)=O)c(Nc2cccc(C#N)c2)n1)C(N)=O [Example 73, (R)-3-((1-amino-1-oxobutan-2-yl)amino)-5-((3-cyanophenyl)amino)-1,2,4-triazine-6-carboxamide] | 0.1 to 1 |
| CC[C@@H](Nc1nnc(C(N)=O)c(Nc2ccc(C#N)cc2)n1)C(N)=O [Example 74, (R)-3-((1-amino-1-oxobutan-2-yl)amino)-5-((4-cyanophenyl)amino)-1,2,4-triazine-6-carboxamide] | 0.1 to 1 |
| N#Cc1ccc(Nc2nc(N[C@@H]3CCCC[C@@H]3N)nnc2C(N)=O)cc1 [Example 75, 3-(((1R,2S)-2-aminocyclohexyl)amino)-5-((4-cyanophenyl)amino)-1,2,4-triazine-6-carboxamide] | 0.01 to 0.1 |
| CC(C)C[C@@H](Nc1nnc(C(N)=O)c(Nc2cccc(-c3ncccn3)c2)n1)C(N)=O [Example 77, (R)-3-((1-amino-4-methyl-1-oxopentan-2-yl)amino)-5-((3-(pyrimidin-2-yl)phenyl)amino)-1,2,4-triazine-6-carboxamide] | 0.01 to 0.1 |
| CC[C@@H](Nc1nnc(C(N)=O)c(Nc2cccc3c2ccn3C)n1)C(N)=O [Example 80, (R)-3-((1-amino-1-oxobutan-2-yl)amino)-5-((1-methyl-1H-indol-4-yl)amino)-1,2,4-triazine-6-carboxamide] | 0.001 to 0.01 |
| Cn1ccc2c(Nc3nc(N[C@@H]4CCCC[C@@H]4N)nnc3C(N)=O)cccc21 [Example 81, 3-(((1R,2S)-2-aminocyclohexyl)amino)-5-((1-methyl-1H-indol-4-yl)amino)-1,2,4-triazine-6-carboxamide] | 0.001 to 0.01 |
| Cn1ccc2c(Nc3nc(N[C@@H]4CCOC[C@@H]4N)nnc3C(N)=O)cccc21 [Example 82, 3-(((3R,4R)-3-aminotetrahydro-2H-pyran-4-yl)amino)-5-((1-methyl-1H-indol-4-yl)amino)-1,2,4-triazine-6-carboxamide] | 0.001 to 0.01 |
| CC(C)C[C@@H](Nc1nnc(C(N)=O)c(Nc2cccc(-n3nccn3)c2)n1)C(N)=O [Example 83, (R)-5-((3-(2H-1,2,3-triazol-2-yl)phenyl)amino)-3-((1-amino-4-methyl-1-oxopentan-2-yl)amino)-1,2,4-triazine-6-carboxamide] | 0.01 to 0.1 |
| CC[C@@H](Nc1nnc(C(N)=O)c(Nc2cccc(-c3ncccn3)c2)n1)C(N)=O [Example 84, (R)-3-((1-amino-1-oxobutan-2-yl)amino)-5-((3-(pyrimidin-2-yl)phenyl)amino)-1,2,4-triazine-6-carboxamide] | 0.1 to 1 |
| NC(=O)c1nnc(N[C@@H]2CCOC[C@@H]2N)nc1Nc1cccc(-n2nccn2)c1 [Example 85, 5-((3-(2H-1,2,3-triazol-2-yl)phenyl)amino)-3-(((3R,4R)-3-aminotetrahydro-2H-pyran-4-yl)amino)-1,2,4-triazine-6-carboxamide] | 0.001 to 0.01 |
| CC(C)[C@@H](Nc1nnc(C(N)=O)c(Nc2cccc3c2ccn3C)n1)C(N)=O [Example 87, (R)-3-((1-amino-3-methyl-1-oxobutan-2-yl)amino)-5-((1-methyl-1H-indol-4-yl)amino)-1,2,4-triazine-6-carboxamide] | 0.01 to 0.1 |
| CC(C)C[C@@H](Nc1nnc(C(N)=O)c(Nc2cccc3c2ccn3C)n1)C(N)=O [Example 88, (R)-3-((1-amino-4-methyl-1-oxopentan-2-yl)amino)-5-((1-methyl-1H-indol-4-yl)amino)-1,2,4-triazine-6-carboxamide] | 0.001 to 0.01 |
| Cn1ccc2c(Nc3nc(N[C@@H]4CCNC4)nnc3C(N)=O)cccc21 [Example 90, (R)-5-((1-methyl-1H-indol-4-yl)amino)-3-(pyrrolidin-3-ylamino)-1,2,4-triazine-6-carboxamide] | 0.001 to 0.01 |
| Cn1ccc2c(Nc3nc(NCc4cc[nH]n4)nnc3C(N)=O)cccc21 [Example 91, 3-(((1H-pyrazol-3-yl)methyl)amino)-5-((1-methyl-1H-indol-4-yl)amino)-1,2,4-triazine-6-carboxamide] | 0.1 to 1 |

From patent publication US9040530B2, “1,2,4-triazine-6-carboxamide kinase inhibitors” (Portola Pharmaceuticals, Inc., priority 2012, dated 2015)
